Laboratory results: patent US7820400B2, “Tumor-associated marker” (The Trustees of Columbia University in the City of New York, priority 2000, dated 2010)

Test system: SK-BR-3 cells
Experiment: Release of TIP-2 antigen into culture media of Taxol-treated cells (Western blot)
Assay type: cell-based, human
Conditions: SK-BR-3 cells treated with increasing amounts of Taxol (5.5-88 uM)
Description: The release of TIP-2 antigen into cell culture media of SK-BR-3 cells treated with different concentration of Taxol. The lines are as follows (from left to right): 1) SK-BR-3 cell lysate prepared form approximately 70,000 cells; 2) empty lane; 3) Taxol, 88 uM added to 35 mm tissue plate containing approximately 250,000 cells; 4) same with Taxol, 44 uM; 5) same with Taxol, 22 uM; 7) same with Taxol, 11 uM; 8) same with Taxol, 5.5 uM; 9) cell lysate prepared from cells which were not treated with Taxol; 10) lysate prepared from the residual dead cells' remnants after treatment with Taxol, 88 uM.
Using a specific fusion partner cell line MFP-2 were developed two fully human antibodies to breast and prostate cancer-associated antigens. Both antigens were reactive with a 42 kDa-protein target, which was identified through SEREX technology as Ga-interacting protein, C terminus or Tax interacting protein, clone 2. This protein is specifically overexpressed in three human breast cancer cell lines, SK-BR-3, MCF-7 and ZR-1-75, has very low if any expression level in human prostate cancer lines, PC-3, LNCaP and DU-145 and no expression in two human fibroblast cell lines. […] Normal breast epithelia were negative for staining with anti-TIP-2 antibodies as was benign prostate hyperplasia (BPH) tissue. […]

Structure (SMILES): CC(=O)O[C@H]1C(=O)[C@@]2(C)[C@H]([C@H](OC(=O)c3ccccc3)[C@]3(O)C[C@H](OC(=O)[C@H](O)[C@@H](NC(=O)c4ccccc4)c4ccccc4)C(C)=C1C3(C)C)[C@]1(OC(C)=O)CO[C@@H]1C[C@@H]2O [Taxol]
- release of TIP-2 antigen into the media: TIP-2 antigen released into the media in a dose dependent manner
